Assay results taken from patent publication US10597388B2, “Pyridazinone herbicides” (FMC CORPORATION, priority 2014, dated 2020).

Tests used:
Assay type in all cases: in vivo
[1] = tested on: johnsongrass (Sorghum halepense); experiment: Test C greenhouse herbicide test, pre- and postemergence
Excerpt: (§1) Seeds of plant species selected from blackgrass (Alopecurus myosuroides), ryegrass, Italian (Italian ryegrass, Lolium multiflorum), wheat (winter wheat, Triticum aestivum), galium (catchweed bedstraw, Galium aparine), corn (Zea mays), large crabgrass, large (large crabgrass, Digitaria sanguinalis), foxtail, giant (giant foxtail, Setaria faberii), johnsongrass (Sorghum halepense), lambsquarters (Chenopodium album), morningglory (Ipomoea coccinea), nutsedge, yellow (yellow nutsedge, Cyperus esculentus), pigweed (Amaranthus retroflexus), ragweed (common ragweed, Ambrosia elatior), soybean (Glycine max), barnyardgrass (Echinochloa crus-galli), oilseed rape (Brassica napus), waterhemp (common waterhemp, Amaranthus rudis), and velvetleaf (Abutilon theophrasti) were planted into a blend of loam soil and sand and treated preemergence with test chemicals formulated in a non-phytotoxic solvent mixture which included a surfactant.
(§2) At the same time, plants selected from these crop and weed species and also chickweed (common chickweed, Stellaria media), kochia (Kochia scoparia), and oat, wild (wild oat, Avena fatua), were planted in pots containing Redi-Earth® planting medium (Scotts Company, 14111 Scottslawn Road, Marysville, Ohio 43041) comprising spaghnum peat moss, vermiculite, wetting agent and starter nutrients and treated with postemergence applications of test chemicals formulated in the same manner. Plants ranged in height from 2 to 18 cm (1- to 4-leaf stage) for postemergence treatments. Treated plants and controls were maintained in a greenhouse for 13 to 15 d, after which time all species were compared to controls and visually evaluated. Plant response ratings, summarized in Table C, are based on a scale of 0 to 100 where 0 is no effect and 100 is complete control. A dash (-) response means no test result.

[2] = tested on: ragweed (common ragweed, Ambrosia elatior); experiment: as above
Excerpt: as §1, §2

[3] = tested on: foxtail, giant (giant foxtail, Setaria faberii); experiment: as above
Excerpt: as §1, §2

[4] = tested on: corn (Zea mays); experiment: as above
Excerpt: as §1, §2

[5] = tested on: ryegrass, Italian (Italian ryegrass, Lolium multiflorum); experiment: as above
Excerpt: as §1, §2

[6] = tested on: crabgrass, large (large crabgrass, Digitaria sanguinalis); experiment: as above
Excerpt: as §1, §2

[7] = tested on: morningglory (Ipomoea coccinea); experiment: as above
Excerpt: as §1, §2

[8] = tested on: oilseed rape (Brassica napus); experiment: as above
Excerpt: as §1, §2

[9] = tested on: blackgrass (Alopecurus myosuroides); experiment: as above
Excerpt: as §1, §2

[10] = tested on: lambsquarters (Chenopodium album); experiment: as above
Excerpt: as §1, §2

[11] = tested on: waterhemp (common waterhemp, Amaranthus rudis); experiment: as above
Excerpt: as §1, §2

[12] = tested on: pigweed (Amaranthus retroflexus); experiment: as above
Excerpt: as §1, §2

[13] = tested on: soybean (Glycine max); experiment: as above
Excerpt: as §1, §2

[14] = tested on: velvetleaf (Abutilon theophrasti); experiment: as above
Excerpt: as §1, §2

[15] = tested on: kochia (Kochia scoparia); experiment: Test C greenhouse herbicide test, postemergence
In short: (§3)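 Greenhouse postemergence spray on plants 2–18 cm tall; response judged visually after 13–15 d relative to untreated controls using a 0 (none) to 100 (full control) scale.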

[16] = tested on: oat, wild (wild oat, Avena fatua); experiment: Test C greenhouse herbicide test, postemergence
In short: as §3

[17] = Postemergence, 31 g ai/ha, 0 to 100 scale (0 no effect, 100 complete control)
[18] = Postemergence, 125 g ai/ha, scale 0 to 100, 0 is no effect, 100 is complete control
[19] = Postemergence, 250 g ai/ha, scale 0 to 100, 0 no effect, 100 complete control, 13 to 15 d
[20] = Preemergence, 31 g ai/ha, scale 0 to 100, 0 is no effect, 100 is complete control
[21] = Preemergence, 62 g ai/ha, scale 0 to 100, 0 is no effect, 100 is complete control
[22] = Preemergence, 125 g ai/ha, scale 0 to 100, 0 is no effect, 100 is complete control
[23] = Preemergence, 250 g ai/ha, scale 0 to 100 (0 no effect, 100 complete control)
[24] = postemergence, 62 g ai/ha, scale 0 to 100, 0 no effect, 100 complete control

Compound: CC(=O)Oc1c(C)nn(C)c(=O)c1-c1c(C)sc2ccc(C)cc12 [Compound 25]
- Johnsongrass plant response rating [1, 17]: 0
- Plant response rating, Johnsongrass [1, 18]: 5
- Plant response rating, Johnsongrass [1, 19]: 10
- Plant response rating, Johnsongrass [1, 20]: 0
- Plant response rating, Johnsongrass [1, 21]: 0
- Plant response rating, Johnsongrass [1, 22]: 5
- Johnsongrass plant response rating [1, 23]: 20
- Johnsongrass plant response rating [1, 24]: 5
- Ragweed plant response rating [2, 17]: 90
- Plant response rating, Ragweed [2, 18]: 95
- Plant response rating, Ragweed [2, 19]: 95
- Plant response rating, Ragweed [2, 20]: 80
- Plant response rating, Ragweed [2, 21]: 95
- Plant response rating, Ragweed [2, 22]: 98
- Ragweed plant response rating [2, 23]: 95
- Ragweed plant response rating [2, 24]: 85
- Foxtail, Giant plant response rating [3, 17]: 35
- Plant response rating, Foxtail, Giant [3, 18]: 70
- Plant response rating, Foxtail, Giant [3, 19]: 85
- Plant response rating, Foxtail, Giant [3, 20]: 75
- Plant response rating, Foxtail, Giant [3, 21]: 85
- Plant response rating, Foxtail, Giant [3, 22]: 90
- Foxtail, Giant plant response rating [3, 23]: 100
- Foxtail, Giant plant response rating [3, 24]: 35
- Corn plant response rating [4, 17]: 5
- Plant response rating, Corn [4, 18]: 5
- Plant response rating, Corn [4, 19]: 10
- Plant response rating, Corn [4, 20]: 0
- Plant response rating, Corn [4, 21]: 0
- Plant response rating, Corn [4, 22]: 0
- Corn plant response rating [4, 23]: 10
- Corn plant response rating [4, 24]: 5
- Ryegrass, Italian plant response rating [5, 17]: 70
- Plant response rating, Ryegrass, Italian [5, 18]: 90
- Plant response rating, Ryegrass, Italian [5, 19]: 95
- Plant response rating, Ryegrass, Italian [5, 20]: 90
- Plant response rating, Ryegrass, Italian [5, 21]: 95
- Plant response rating, Ryegrass, Italian [5, 22]: 95
- Ryegrass, Italian plant response rating [5, 23]: 95
- Ryegrass, Italian plant response rating [5, 24]: 85
- Crabgrass, Large plant response rating [6, 17]: 5
- Plant response rating, Crabgrass, Large [6, 18]: 20
- Plant response rating, Crabgrass, Large [6, 19]: 20
- Plant response rating, Crabgrass, Large [6, 20]: 70
- Plant response rating, Crabgrass, Large [6, 21]: 75
- Plant response rating, Crabgrass, Large [6, 22]: 95
- Crabgrass, Large plant response rating [6, 23]: 90
- Crabgrass, Large plant response rating [6, 24]: 15
- Morningglory plant response rating [7, 17]: 100
- Plant response rating, Morningglory [7, 18]: 100
- Plant response rating, Morningglory [7, 19]: 100
- Plant response rating, Morningglory [7, 20]: 85
- Plant response rating, Morningglory [7, 21]: 95
- Plant response rating, Morningglory [7, 22]: 95
- Morningglory plant response rating [7, 23]: 100
- Morningglory plant response rating [7, 24]: 100
- Oilseed Rape plant response rating [8, 17]: 0
- Plant response rating, Oilseed Rape [8, 18]: 20
- Plant response rating, Oilseed Rape [8, 19]: 5
- Plant response rating, Oilseed Rape [8, 20]: 0
- Plant response rating, Oilseed Rape [8, 21]: 0
- Plant response rating, Oilseed Rape [8, 22]: 5
- Oilseed Rape plant response rating [8, 23]: 35
- Oilseed Rape plant response rating [8, 24]: 0
- Blackgrass plant response rating [9, 17]: 30
- Plant response rating, Blackgrass [9, 18]: 60
- Plant response rating, Blackgrass [9, 19]: 80
- Plant response rating, Blackgrass [9, 20]: 85
- Plant response rating, Blackgrass [9, 21]: 85
- Plant response rating, Blackgrass [9, 22]: 90
- Blackgrass plant response rating [9, 23]: 90
- Blackgrass plant response rating [9, 24]: 55
- Lambsquarters plant response rating [10, 17]: 90
- Plant response rating, Lambsquarters [10, 18]: 98
- Plant response rating, Lambsquarters [10, 19]: 98
- Plant response rating, Lambsquarters [10, 20]: 80
- Plant response rating, Lambsquarters [10, 21]: 85
- Plant response rating, Lambsquarters [10, 22]: 85
- Lambsquarters plant response rating [10, 23]: 95
- Lambsquarters plant response rating [10, 24]: 95
- Waterhemp plant response rating [11, 17]: 75
- Plant response rating, Waterhemp [11, 18]: 95
- Plant response rating, Waterhemp [11, 19]: 98
- Plant response rating, Waterhemp [11, 21]: 100
- Plant response rating, Waterhemp [11, 22]: 100
- Waterhemp plant response rating [11, 23]: 100
- Waterhemp plant response rating [11, 24]: 95
- Pigweed plant response rating [12, 17]: 90
- Plant response rating, Pigweed [12, 18]: 95
- Plant response rating, Pigweed [12, 19]: 98
- Plant response rating, Pigweed [12, 20]: 100
- Plant response rating, Pigweed [12, 21]: 100
- Plant response rating, Pigweed [12, 22]: 100
- Pigweed plant response rating [12, 23]: 100
- Pigweed plant response rating [12, 24]: 90
- Soybean plant response rating [13, 17]: 0
- Plant response rating, Soybean [13, 18]: 10
- Plant response rating, Soybean [13, 19]: 10
- Plant response rating, Soybean [13, 21]: 0
- Plant response rating, Soybean [13, 22]: 0
- Soybean plant response rating [13, 23]: 5
- Soybean plant response rating [13, 24]: 0
- Velvetleaf plant response rating [14, 17]: 70
- Plant response rating, Velvetleaf [14, 18]: 85
- Plant response rating, Velvetleaf [14, 19]: 98
- Plant response rating, Velvetleaf [14, 21]: 85
- Plant response rating, Velvetleaf [14, 22]: 90
- Velvetleaf plant response rating [14, 23]: 98
- Velvetleaf plant response rating [14, 24]: 80
- Kochia plant response rating [15, 17]: 95
- Plant response rating, Kochia [15, 18]: 100
- Plant response rating, Kochia [15, 19]: 100
- Kochia plant response rating [15, 24]: 95
- Oat, Wild plant response rating [16, 17]: 60
- Plant response rating, Oat, Wild [16, 18]: 90
- Plant response rating, Oat, Wild [16, 19]: 95
- Oat, Wild plant response rating [16, 24]: 70
